From publication PMC5130005, “Indolin-2-one compounds targeting thioredoxin reductase as potential anticancer drug leads” (Oncotarget, 2016)

Experiments:
Trx in HCT 116 cells = assay: Trx redox state in cells (IAA alkylation, native PAGE); assay type: cell-based, human; details: 40 μM; 4, 8 and 14 h
Method: The redox state of cellular Trx was assessed as previously described. HCT 116 cells were seeded in 60 mm plates and allowed to grow to 70% confluency. Compounds 4 or 5 were then added to the cells for 4, 8 or 14 h. Lysates were collected in lysis buffer (50 mM Tris-HCl pH 8.3, 2 mM EDTA, 6 M guanidine HCl, 0.5% Triton-X, 50 mM IAA). The lysates were incubated in the dark for 30 min at room temperature, sonicated briefly, and finally passed through a MicroSpin G-25 column (GE Healthcare) to remove guanidine and unreacted IAA. The desalted lysates were subjected to native PAGE, followed by transfer of separated proteins onto nitrocellulose membranes for Western blot analysis using anti-Trx antibody.

[1] = test system: Trx-ASK1 complex in ASK1-overexpressing HCT 116 cells; assay: Trx-ASK1 interaction by Trx immunoprecipitation; assay type: cell-based, human
Method: HCT 116 cells were seeded in 60 mm plates and upon reaching 40% confluency, they were transfected with 1.5 μg of pCMV-SPORT6-ASK1 per plate. When the transfected cells reached ~70% confluency, they were treated with DMSO or compound 4 at indicated concentrations for 4 h and lysates were collected for immunoprecipitation set-up. For each lysate sample, a volume containing 1 mg of protein was mixed with 1.5 μg of anti-Trx antibody coupled to 20 μl of protein G-sepharose (GE Healthcare) and tumbled at 4°C for 2 h. The G-sepharose beads were washed three times in a cold washing buffer containing 20 mM Tris (pH 7.5), 0.5 M NaCl and 1 mM EGTA and once in a buffer containing 50 mM Tris (pH 7.5). The immunoprecipitated proteins were denatured in SDS sample buffer containing 5% β-mercaptoethanol and subjected to SDS-PAGE and Western blotting.

recombinant rat TrxR [2] = target: T1, recombinant rat TrxR (Rattus norvegicus, UniProt O89049); assay: reversibility of TrxR inhibition (desalting, DTNB reduction assay); assay type: biochemical; details: 20 μM, 30 min, then desalting; activity followed 2 h post-desalting
T1 construct: made in house
T1 sequence (O89049 1-499): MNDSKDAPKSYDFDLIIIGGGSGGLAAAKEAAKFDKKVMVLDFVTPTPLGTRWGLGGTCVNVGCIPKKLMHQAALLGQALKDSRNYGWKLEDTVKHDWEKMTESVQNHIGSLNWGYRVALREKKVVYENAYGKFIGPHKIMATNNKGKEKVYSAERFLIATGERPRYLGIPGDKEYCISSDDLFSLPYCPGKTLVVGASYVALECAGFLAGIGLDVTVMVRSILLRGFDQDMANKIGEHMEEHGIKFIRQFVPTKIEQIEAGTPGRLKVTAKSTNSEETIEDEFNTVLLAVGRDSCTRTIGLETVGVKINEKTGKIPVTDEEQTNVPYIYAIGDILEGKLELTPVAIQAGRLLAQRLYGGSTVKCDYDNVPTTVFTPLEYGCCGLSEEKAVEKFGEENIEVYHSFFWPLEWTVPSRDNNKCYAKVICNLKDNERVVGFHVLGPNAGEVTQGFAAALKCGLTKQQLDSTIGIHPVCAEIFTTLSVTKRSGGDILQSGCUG

recombinant rat TrxR [3] = target: T1, recombinant rat TrxR; assay: juglone reduction versus DTNB reduction by recombinant rat TrxR; assay type: biochemical; details: 15 min incubation, 15 nM TrxR, 250 μM NADPH, 1-100 μM
Method: The assay, designed to determine the ability of mammalian TrxR to reduce juglone at the N-terminal active center, was performed as described previously. Briefly, 2 μl of diluted DMSO stocks of compounds 4 and 5 (final concentrations 1-100 μM) were incubated in 198 μl of 15 nM recombinant rat TrxR, 250 μM NADPH and 0.1 mg/ml BSA in TE buffer at room temperature in 96-well plates for 15 min. 100 mM stock solution of juglone in DMSO was prepared fresh for each experiment and diluted in TE buffer to a 300 μM working solution. The incubation was terminated by the addition of 100 μl of 300 μM juglone solution (final concentration 100 μM), and NADPH consumption was monitored at 340 nm for 5 min using the VersaMax microplate reader. The linear decrease in NADPH absorbance was used for calculating juglone reduction activity. The results were expressed as % of TrxR juglone reduction activity of drug-treated sample over that of DMSO-treated sample.
The experiments were performed at the same time with a corresponding DTNB reduction assay as described above with modifications so as to keep the experimental parameters and conditions similar to those in the juglone reduction assay. […] Following 15 min incubation with compound 4 or 5, 50 μl of 8.75 μM DTNB solution (final concentration 1.75 μM) was added to each well and DTNB reduction was measured at 412 nm for 2 min.

HCT 116 cells = assay: apoptosis induction by Western blot of cleaved caspase 3 and PARP; assay type: cell-based, human; details: 10 h
Method: Cells were seeded onto 100 mm or 60 mm culture plates and upon reaching ~70% confluency, they were subjected to drug treatment for indicated durations. Pellets of compound-treated or DMSO control cells comprising both attached and floating cells were collected and lysed in lysis buffer (25 mM Tris-HCl pH 7.5, 100 mM NaCl, 2.5 mM EDTA, 2.5 mM EGTA, 20 mM NaF, 1 mM Na3VO4, 20 mM sodium β-glycerophosphate, 10 mM sodium pyrophosphate, 0.5% Triton X-100) with freshly added protease inhibitor cocktail (Roche Diagnostics). Prior to being used in Western blot analysis and/or cellular TrxR, GR, Trx and GPx activity determination, lysates were precleared by centrifugation and protein concentrations were determined using a modified Bradford assay (Bio-Rad Laboratories) as described in the manufacturer's manual. This procedure for collecting whole cell lysate was used for all experiments except for the Trx-redox state determination experiment. Equal amounts of protein (50 μg) in each lysate sample were separated by SDS-PAGE, followed by electroblotting onto nitrocellulose membranes. Electroblotted proteins on membranes were probed with a primary antibody and subsequently by a secondary antibody conjugated to HRP.

Row | SMILES | Trx oxidation in HCT 116 cells (Trx in HCT 116 cells) | amount of ASK1 bound to Trx1 [1] | reversibility of TrxR inhibition (recombinant rat TrxR [2]) | juglone reduction compared with DTNB reduction by inhibited TrxR (recombinant rat TrxR [3]) | apoptosis induction (cleaved caspase 3 and PARP) (HCT 116 cells)
1 | CCCCN1C(=O)/C(=C/C(C)=O)c2ccccc21 [Compound 4] | time-dependent oxidation of Trx | dose-dependent decrease | irreversible inhibitors of TrxR | juglone reduction was more preserved than DTNB reduction | Dose-dependent induction of apoptosis
2 | CC(=O)/C=C1/C(=O)N(Cc2ccccc2)c2ccccc21 [Compound 5] | time-dependent oxidation of Trx | – | irreversible inhibitors of TrxR | juglone reduction was more preserved than DTNB reduction | Dose-dependent induction of apoptosis
